Results published in patent US20240083898A1, “TRICYCLIC TRIAZOLO COMPOUNDS AS DGK INHIBITORS” (Incyte Corporation, priority 2022, published 2024).

Tests used:
DGKα = molecular target: T1, DGKα (Homo sapiens, UniProt P23743); assay: In vitro DGKα inhibition assay (ADP-Glo); assay type: biochemical; details: His-tagged human recombinant enzyme, 0.1 nM DGKα, 50 μM ATP, 20 μM DLG, 90 minute incubation
T1 construct: His; purchased Signal Chem D21-10BH
Procedure: (§1) The DGKα and DGKζ biochemical reactions were performed using His-tagged human recombinant enzymes (Signal Chem, DGKα, #D21-10BH; DGKζ, #D30-10H)) and DLG (Dilauroyl-sn-glycerol) lipid substrate (Signal Chem, #D430-59). ADP-Glo assay was performed using ADP-Glo™ kinase Assay kit (Promega, #V9104). The reactions were carried out in assay buffer containing 40 mM Tris, pH 7.5, 0.1% CHAPS, 0.1% Prionex, 40 mM NaCl, 5 mM MgCl2, 1 mM CaCl2, and 1 mM DTT. DGKα reactions contained 0.1 nM DGKα, 50 μM ATP, and 20 μM DLG. And DGKζ reactions contained 0.4 nM DGKζ, 30 μM ATP, and 20 μM DLG.
(§2) For compound inhibition studies, 40 nL test compound in DMSO was added to wells of white polystyrene plates in 384-well (Greiner, #784075) or 1536-well format (Greiner, #782075). Compounds were added with top concentration of 2 mM with 11 point, 3-fold dilution series. Enzyme solution (contains 2× DGK enzyme concentration in 1× assay buffer) was added to the plate in 2 μL/well volume, followed by 2 μL/well of substrate solution (contains 2× concentration of ATP and DLG substrate in 1× assay buffer). Plates were then centrifuged for 1 min at 1200 RPM and sealed or lidded. For 4 μL reaction volume, test compounds were therefore diluted 100× to final top concentration of 20 μM. After 90 minute incubation, reactions were quenched by addition of 2 μL/well Promega ADP-Glo Reagent, followed by centrifugation and lidding. After 60 min incubation, 2 μL/well Promega Kinase Detection Reagent was added, plates centrifuged, and incubated for 30 min. Plates were then read using Luminescence method on BMG PHERAstar FSX plate reader. Percent inhibition was calculated and IC50s were determined using 4-parameter fit in Genedata Screener. Labcyte Echo acoustic dispenser was used for compound addition, and Formulatrix Tempest liquid handler was used for all reagent dispenses.

DGKζ = molecular target: T2, DGKζ (Homo sapiens, UniProt Q13574); assay: In vitro DGKζ inhibition assay (ADP-Glo); assay type: biochemical; details: His-tagged human recombinant enzyme, 0.4 nM DGKζ, 30 μM ATP, 20 μM DLG, 90 minute incubation
T2 construct: His; purchased Signal Chem D30-10H
T2 sequence (Q13574 whole entry): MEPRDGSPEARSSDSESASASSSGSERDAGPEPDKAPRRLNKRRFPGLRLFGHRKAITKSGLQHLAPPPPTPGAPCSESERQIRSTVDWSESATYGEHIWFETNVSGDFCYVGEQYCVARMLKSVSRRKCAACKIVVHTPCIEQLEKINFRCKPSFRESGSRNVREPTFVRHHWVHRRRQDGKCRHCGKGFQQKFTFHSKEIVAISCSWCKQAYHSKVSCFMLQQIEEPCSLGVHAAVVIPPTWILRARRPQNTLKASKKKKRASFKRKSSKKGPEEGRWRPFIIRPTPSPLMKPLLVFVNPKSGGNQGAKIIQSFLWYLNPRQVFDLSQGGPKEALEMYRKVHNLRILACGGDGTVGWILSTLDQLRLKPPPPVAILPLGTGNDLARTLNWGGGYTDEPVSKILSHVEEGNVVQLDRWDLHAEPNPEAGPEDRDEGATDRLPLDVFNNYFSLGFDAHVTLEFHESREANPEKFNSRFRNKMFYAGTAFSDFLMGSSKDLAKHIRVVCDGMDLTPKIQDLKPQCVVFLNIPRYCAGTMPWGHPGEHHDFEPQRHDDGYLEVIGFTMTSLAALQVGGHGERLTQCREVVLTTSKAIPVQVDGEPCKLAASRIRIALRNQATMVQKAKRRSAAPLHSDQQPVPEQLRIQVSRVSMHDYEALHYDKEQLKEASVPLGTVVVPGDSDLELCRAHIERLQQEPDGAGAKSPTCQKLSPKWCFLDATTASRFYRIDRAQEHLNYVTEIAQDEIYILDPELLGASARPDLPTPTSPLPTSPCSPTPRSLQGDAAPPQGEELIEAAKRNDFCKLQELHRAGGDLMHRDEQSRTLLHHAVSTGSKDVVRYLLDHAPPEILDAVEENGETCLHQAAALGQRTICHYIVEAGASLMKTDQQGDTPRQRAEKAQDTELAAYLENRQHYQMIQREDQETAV
Procedure: as §1, §2

T1 sequence (P23743 whole entry): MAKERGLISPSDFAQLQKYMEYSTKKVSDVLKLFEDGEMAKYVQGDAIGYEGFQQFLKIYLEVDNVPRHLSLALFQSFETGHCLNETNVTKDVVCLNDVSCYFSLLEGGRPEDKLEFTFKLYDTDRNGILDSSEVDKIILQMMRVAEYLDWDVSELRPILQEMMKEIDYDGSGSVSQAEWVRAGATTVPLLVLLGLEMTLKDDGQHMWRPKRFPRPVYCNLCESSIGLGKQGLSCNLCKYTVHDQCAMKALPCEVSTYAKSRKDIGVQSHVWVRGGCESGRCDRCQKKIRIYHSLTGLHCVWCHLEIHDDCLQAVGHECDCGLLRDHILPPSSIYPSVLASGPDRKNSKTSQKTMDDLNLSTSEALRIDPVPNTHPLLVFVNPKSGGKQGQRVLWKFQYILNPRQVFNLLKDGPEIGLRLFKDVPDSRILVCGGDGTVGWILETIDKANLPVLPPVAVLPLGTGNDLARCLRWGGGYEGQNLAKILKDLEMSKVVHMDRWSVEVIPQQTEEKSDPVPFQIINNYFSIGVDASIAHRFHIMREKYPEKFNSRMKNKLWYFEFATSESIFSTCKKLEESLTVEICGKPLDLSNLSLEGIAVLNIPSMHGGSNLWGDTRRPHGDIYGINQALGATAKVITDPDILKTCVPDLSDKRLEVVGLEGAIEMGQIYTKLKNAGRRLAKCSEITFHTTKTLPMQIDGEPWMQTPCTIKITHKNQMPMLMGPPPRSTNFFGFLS

| Structure (SMILES) | IC50 (DGKα) [nM] | IC50 (DGKζ) [nM] |
| --- | --- | --- |
| CC[C@@H]1CN(c2nc3nncn3c3cccnc23)[C@@H](C)CN1C(c1ccc(F)cc1)c1nc(C2CC2)no1 (mixture of isomers) [Example 9, 3-Cyclopropyl-5-(((2R,5S)-2-ethyl-5-methyl-4-(pyrido[2,3-e][1,2,4]triazolo[4,3-a]pyrimidin-5-yl)piperazin-1-yl)(4-fluorophenyl)methyl)-1,2,4-oxadiazole] | ≤ 20 | 20 to 200 |
| CC[C@@H]1CN(c2nc3nncn3c3cccnc23)[C@@H](C)CN1C(C(=O)OC)c1ccc(F)cc1 (single isomer, unassigned) [Example 12] | ≤ 20 | 20 to 200 |
| CC[C@@H]1CN(c2nc3nncn3c3cccnc23)[C@@H](C)CN1C(C(=O)OC)c1ccc(F)cc1 (single isomer, unassigned) [Example 13] | ≤ 20 | 20 to 200 |
| CC[C@@H]1CN(c2nc3nncn3c3cccnc23)[C@@H](C)CN1C(c1ccc(F)cc1)C(C)(C)O (single isomer, unassigned) [Example 14] | ≤ 20 | 200 to 2000 |
| CC[C@@H]1CN(c2nc3nncn3c3cccnc23)[C@@H](C)CN1C(c1ccc(F)cc1)C(C)(C)O (single isomer, unassigned) [Example 15] | 20 to 200 | 20 to 200 |
| CC[C@H]1CN(C(c2ccc(F)cc2)c2ccc(F)cc2)[C@H](CC)CN1c1nc2nncn2c2ccc(C)nc12 [Example 1, 5-((2S,5R)-4-(Bis(4-fluorophenyl)methyl)-2,5-diethylpiperazin-1-yl)-7-methylpyrido[2,3-e][1,2,4]triazolo[4,3-a]pyrimidine] | ≤ 20 | ≤ 20 |
| CC[C@H]1CN(C(c2ccc(F)cc2)c2ccc(F)cc2)[C@H](CC)CN1c1nc2nncn2c2cccnc12 [Example 2, 5-((2S,5R)-4-(Bis(4-fluorophenyl)methyl)-2,5-diethylpiperazin-1-yl)pyrido[2,3-e][1,2,4]triazolo[4,3-a]pyrimidine] | ≤ 20 | ≤ 20 |
| CC[C@H]1CN(C(c2ccc(F)cc2)c2ccc(F)cc2)[C@H](CC)CN1c1nc2nnc(C)n2c2cccnc12 [Example 3, 5-((2S,5R)-4-(Bis(4-fluorophenyl)methyl)-2,5-diethylpiperazin-1-yl)-1-methylpyrido[2,3-e][1,2,4]triazolo[4,3-a]pyrimidine] | ≤ 20 | ≤ 20 |
| CC[C@H]1CN(C(c2ccc(F)cc2)c2ccc(F)cc2)[C@H](CC)CN1c1nc2nncn2c2nccnc12 [Example 4, 5-((2S,5R)-4-(Bis(4-fluorophenyl)methyl)-2,5-diethylpiperazin-1-yl)-[1,2,4]triazolo[4,3-a]pteridine] | ≤ 20 | ≤ 20 |
| CC[C@H]1CN(C(c2ccc(F)cc2)c2ccc(F)cc2)[C@H](CC)CN1c1nc2nncn2c2ccc(C#N)nc12 [Example 5, 5-((2S,5R)-4-(Bis(4-fluorophenyl)methyl)-2,5-diethylpiperazin-1-yl)pyrido[2,3-e][1,2,4]triazolo[4,3-a]pyrimidine-7-carbonitrile] | ≤ 20 | ≤ 20 |
| CC[C@H]1CN(C(c2ccc(F)cc2)c2ccc(F)cc2)[C@H](CC)CN1c1nc2nncn2c2cc(-c3cnn(C)c3)cnc12 [Example 6, 5-((2S,5R)-4-(Bis(4-fluorophenyl)methyl)-2,5-diethylpiperazin-1-yl)-8-(1-methyl-1H-pyrazol-4-yl)pyrido[2,3-e][1,2,4]triazolo[4,3-a]pyrimidine] | ≤ 20 | > 2000 |
| CC[C@H]1CN(C(c2ccc(F)cc2)c2ccc(F)cc2)[C@H](CC)CN1c1cc2nncn2c2cccnc12 [Example 7, 5-((2S,5R)-4-(Bis(4-fluorophenyl)methyl)-2,5-diethylpiperazin-1-yl)-[1,2,4]triazolo[4,3-a][1,5]naphthyridine] | ≤ 20 | 20 to 200 |
| CC[C@@H]1CN(c2nc3nncn3c3nccnc23)[C@@H](C)CN1C(c1ccc(F)cc1)c1ccc(F)cc1 [Example 8, 5-((2S,5R)-4-(Bis(4-fluorophenyl)methyl)-5-ethyl-2-methylpiperazin-1-yl)-[1,2,4]triazolo[4,3-a]pteridine] | ≤ 20 | ≤ 20 |
| CC[C@@H]1CN(c2nc3nncn3c3cccnc23)[C@@H](C)CN1Cc1ccc2cc(F)ccc2n1 [Example 10, 5-((2S,5R)-5-Ethyl-4-((6-fluoroquinolin-2-yl)methyl)-2-methylpiperazin-1-yl)pyrido[2,3-e][1,2,4]triazolo[4,3-a]pyrimidine] | ≤ 20 | 20 to 200 |
| CC[C@@H]1CN(c2nc3nncn3c3cccnc23)[C@@H](C)CN1Cc1cccc2ccccc12 [Example 11, 5-((2S,5R)-5-Ethyl-2-methyl-4-(naphthalen-1-ylmethyl)piperazin-1-yl)pyrido[2,3-e][1,2,4]triazolo[4,3-a]pyrimidine] | ≤ 20 | ≤ 20 |
